Measured values reported in ChEMBL document CHEMBL4602653, “Neuraminidase-triggered activation of prodrug-type substrate of 4-nitroaniline” (Bioorg Med Chem Lett, 2020).

Tests used:
Assay type in all cases: ADME
Conditions in all cases: isolated protein, 6000 µM
[1] = Drug metabolism assessed as Clostridium perfringens neuraminidase-mediated drug decomposition resulting in formation of beta-H3-(equitorial)-N-acetyl-neuraminic acid at 2.21 ppm at 6 mM measured over 10 hrs by 1H-NMR analysis
[2] = Drug metabolism assessed as Clostridium perfringens neuraminidase-mediated drug decomposition resulting in formation of alpha-H3-(equitorial)-N-acetyl-neuraminic acid at 2.74 ppm at 6 mM measured over 10 hrs by 1H-NMR analysis
[3] = Drug metabolism assessed as Clostridium perfringens neuraminidase-mediated drug decomposition resulting in formation of alpha-H3-(axial)-N-acetyl-neuraminic acid at 1.83 ppm at 6 mM measured over 10 hrs by 1H-NMR analysis
[4] = Drug metabolism assessed as Clostridium perfringens neuraminidase-mediated formation of free N-acetyl-neuraminic acid at 6 mM measured after 75 hrs by 1H-NMR analysis
[5] = Drug metabolism assessed as Clostridium perfringens neuraminidase-mediated drug decomposition by measuring ratio of alpha-H3-(axial)-N-acetyl-neuraminic acid to beta-H3-(axial)-N-acetyl-neuraminic acid at 6 mM measured over 10 hrs by 1H-NMR analysis
[6] = Drug metabolism assessed as Clostridium perfringens neuraminidase-mediated formation of para-quinone methide by measuring 4-hydroxy benzyl alcohol formation at 6.90 to 7.29 ppm at 6 mM measured after 10 hrs by 1H-NMR analysis
[7] = Drug metabolism assessed as Clostridium perfringens neuraminidase-mediated drug decomposition resulting in formation of alpha-H3-(axial)-N-acetyl-neuraminic acid at 1.62 ppm at 6 mM measured over 10 hrs by 1H-NMR analysis
[8] = Drug metabolism assessed as Clostridium perfringens neuraminidase-mediated drug decomposition by measuring ratio of alpha-H3-(equitorial)-N-acetyl-neuraminic acid to beta-H3-(equitorial)-N-acetyl-neuraminic acid at 6 mM measured over 10 hrs by 1H-NMR analysis

In the case of `CC(=O)N[C@H]1[C@H]([C@H](O)[C@H](O)CO)OC(Oc2ccc(COC(=O)Nc3ccc([N+](=O)[O-])cc3)cc2)(C(=O)O)C[C@@H]1O` (stereo partly drawn), the Drug metabolism [1] is reported as “Metabolite_Detected”, the Drug metabolism [2] is reported as “Metabolite_Detected” and the Drug metabolism [3] is reported as “Metabolite_Detected”. The Drug metabolism [4] was “Metabolite_Detected”, the Ratio [5] was 92.4 and the Drug metabolism [6] was “Metabolite_Detected”. For the same molecule, the Drug metabolism [7] was “Metabolite_Detected” and the Ratio [8] was 7.6.
